In patent US5876694A, “Azavesamicols” (priority 1997, dated 1999):

Experiments:
vesamicol receptor [1] = details: cited from earlier work; for vesamicol receptor affinity (in words): earlier studies
vesicular ACh transport = details: earlier studies; cited from earlier work
vesamicol receptor [2] = details: rodent brain, cited from earlier work
[3] = Tissue distribution of radiotracer in rats; format: in vivo, male Wistar rats
Method: Tissue Distribution Experiments
Four groups of male Wistar rats (n=4) weighing 200-350 g were used in these experiments. Each animal received, while under ether anesthesia, an intravenous injection of the radiotracer (3-5 uCi) dissolved in 0.1 mL of 50% aqueous ethanol. At 5, 30, 60 and 180 min post-injection, blood was collected from the anesthetized animal by cardiac puncture, and the animal was immediately sacrificed by cardiectomy. The organs and tissues of interest were harvested, transferred to preweighed tubes and counted in a Beckman gamma counter. The tubes were subsequently reweighed to give the weight of the corresponding tissues. Preweighed tubes containing 1 mL samples of a 1:100 dilution of the injected dose were also counted and used as reference for calculating the tissue accumulation of radioactivity. The accumulation of radiotracer was expressed as a percentage of injected dose per gram of tissue.
The animals were injected intravenously with 4.9 uCi of the radiotracer i
0.1 ml of 50% aq. EtOH.
The animals were injected with 3.7 uCi of the radiotracer in 0.1 ml of 50

vesamicol receptor [4] = assay: Ex vivo autoradiography of rat brain; format: in vivo, male Wistar rats; details: 3 hrs after iv
Method: Ex-vivo Autoradiographic Studies
Two groups of male Wistar rats (n=2) were used in these experiments. Each animal in the first group received an i.v. injection of (+)-[^125 I]12h (385 uCi in 0.1/ml of 50% aq. EtOH). Similarly, animals in the second group received 330 uCi of (-)-[^125 I]12h (in 0.1 ml of 50% aq. EtOH). After 3 hrs, the animals were sacrificed by decapitation. The brains were carefully removed, embedded in Tissue Tek OCT medium and frozen to […] Twenty micron thick coronal brain slices were subsequently obtained by sectioning rostrocaudally with a Reichert HistoSTAT microtome at -15°. The tissue sections were apposed to Kodak NMC film accompanied by ^125 I-labeled external standards (^125 I-Microscales from Amersham). For delineation of cytoarchitecture, adjacent tissue sections were subjected to Nissl staining.

O[C@@H]1Cc2ccccc2C[C@H]1N1CCC(c2ccccc2)CC1 (relative stereo) [Compound 2a]
vesamicol receptor affinity (in words) (vesamicol receptor [1]): potent ligands | inhibition of vesicular ACh transport / activity (in words) (vesicular ACh transport): potent inhibitors of vesicular ACh transport

Nc1cccc2c1C[C@@H](N1CCC(c3ccccc3)CC1)[C@H](O)C2 (relative stereo) [Compound 2b]
vesamicol receptor affinity (in words) (vesamicol receptor [1]): potent ligands | inhibition of vesicular ACh transport / activity (in words) (vesicular ACh transport): potent inhibitors of vesicular ACh transport

O[C@@H]1CCCC[C@H]1N1CCC(c2ccccc2)CC1 (relative stereo) [[^3 H]vesamicol]
cortical [^3 H]vesamicol binding after lesioning a known cholinergic pathway (in words) (vesamicol receptor [2]; lesion): significant decrease | [^3 H]vesamicol distribution versus other cholinergic markers (in words) (vesamicol receptor [2]): correlate well with other markers of cholinergic innervation

OC1CCN(Cc2cccc([125I])c2)CC1N1CCC(c2ccccc2)CC1 (stereo not drawn) [(+)-[^125 I]12h, (+)- and (-)-4-hydroxy-1-(3-[I^125]iodobenzyl)-3-(4-phenyl-piperidinyl)piperidine]
Ratio brain/blood ([3]; 5 min, iv): 2.33 | Ratio heart/blood ([3]; 5 min, iv): 4.68 | Tissue distribution, blood ([3]; 5 min, iv): 0.24 % dose/g of tissue | Tissue distribution, brain ([3]; 5 min, iv): 0.57 % dose/g of tissue | Tissue distribution, gonads ([3]; 5 min, iv): 0.13 % dose/g of tissue | Tissue distribution, heart ([3]; 5 min, iv): 1.14 % dose/g of tissue | Tissue distribution, kidney ([3]; 5 min, iv): 2.25 % dose/g of tissue | Tissue distribution, liver ([3]; 5 min, iv): 1.60 % dose/g of tissue | Tissue distribution, lung ([3]; 5 min, iv): 3.67 % dose/g of tissue | Tissue distribution, muscle ([3]; 5 min, iv): 0.34 % dose/g of tissue | Tissue distribution, spleen ([3]; 5 min, iv): 0.76 % dose/g of tissue | Tissue distribution, thyroid ([3]; 5 min, iv): 1.60 % dose/g of tissue | radioactivity in liver, heart, thyroid and spleen (in words) ([3]; 5 min, iv): Moderate to low levels | radioactivity in lung and kidney (in words) ([3]; 5 min, iv): high levels of radioactivity | radioactivity in brain ([3]; 5 min post-injection, iv): 1.06 % of the injected dose | Ratio brain/blood ([3]; 30 min, iv): 3.18 | Ratio heart/blood ([3]; 30 min, iv): 2.33 | Tissue distribution, blood ([3]; 30 min, iv): 0.12 % dose/g of tissue | Tissue distribution, brain ([3]; 30 min, iv): 0.36 % dose/g of tissue | Tissue distribution, gonads ([3]; 30 min, iv): 0.15 % dose/g of tissue | Tissue distribution, heart ([3]; 30 min, iv): 0.26 % dose/g of tissue | Tissue distribution, kidney ([3]; 30 min, iv): 1.32 % dose/g of tissue | Tissue distribution, liver ([3]; 30 min, iv): 2.18 % dose/g of tissue | Tissue distribution, lung ([3]; 30 min, iv): 1.21 % dose/g of tissue | Tissue distribution, muscle ([3]; 30 min, iv): 0.16 % dose/g of tissue | Tissue distribution, spleen ([3]; 30 min, iv): 1.07 % dose/g of tissue | Tissue distribution, thyroid ([3]; 30 min, iv): 2.33 % dose/g of tissue | Ratio brain/blood ([3]; 60 min, iv): 3.08 | Ratio heart/blood ([3]; 60 min, iv): 1.70 | Tissue distribution, blood ([3]; 60 min, iv): 0.09 % dose/g of tissue | Tissue distribution, brain ([3]; 60 min, iv): 0.27 % dose/g of tissue | Tissue distribution, gonads ([3]; 60 min, iv): 0.17 % dose/g of tissue | Tissue distribution, heart ([3]; 60 min, iv): 0.15 % dose/g of tissue | Tissue distribution, kidney ([3]; 60 min, iv): 0.87 % dose/g of tissue | Tissue distribution, liver ([3]; 60 min, iv): 1.91 % dose/g of tissue | Tissue distribution, lung ([3]; 60 min, iv): 0.82 % dose/g of tissue | Tissue distribution, muscle ([3]; 60 min, iv): 0.11 % dose/g of tissue | Tissue distribution, spleen ([3]; 60 min, iv): 0.86 % dose/g of tissue | Tissue distribution, thyroid ([3]; 60 min, iv): 4.59 % dose/g of tissue | radioactivity in brain ([3]; 60 min post-injection, iv): 0.51 % of the injected dose | Ratio brain/blood ([3]; 180 min, iv): 2.35 | Ratio heart/blood ([3]; 180 min, iv): 1.60 | Tissue distribution, blood ([3]; 180 min, iv): 0.07 % dose/g of tissue | Tissue distribution, brain ([3]; 180 min, iv): 0.15 % dose/g of tissue | Tissue distribution, gonads ([3]; 180 min, iv): 0.16 % dose/g of tissue | Tissue distribution, heart ([3]; 180 min, iv): 0.10 % dose/g of tissue | Tissue distribution, kidney ([3]; 180 min, iv): 0.50 % dose/g of tissue | Tissue distribution, liver ([3]; 180 min, iv): 1.18 % dose/g of tissue | Tissue distribution, lung ([3]; 180 min, iv): 0.39 % dose/g of tissue | Tissue distribution, muscle ([3]; 180 min, iv): 0.08 % dose/g of tissue | Tissue distribution, spleen ([3]; 180 min, iv): 0.44 % dose/g of tissue | Tissue distribution, thyroid ([3]; 180 min, iv): 13.13 % dose/g of tissue | radioactivity in brain ([3]; 3 hrs post-injection, iv): 0.39 % of the injected dose | radioactivity in thyroid (in words) ([3]; beginning to 3 hrs post-injection): moderate at the beginning but increased significantly by 3 hrs post-injection | brain regional distribution: cortex, hippocampus and cerebellum (vesamicol receptor [4]): Moderate levels of activity | brain regional distribution: interpeduncular nucleus, olfactory tubercle, nucleus accumbens, amygdala, caudate-putamen, nuclei of fifth and seventh cranial nerves (vesamicol receptor [4]): high levels of radioactivity

OCCN1CCC(c2ccccc2)CC1 [Compound 4a]
inhibition of vesicular ACh transport / activity (in words) (vesicular ACh transport): substantially diminished activity

CCC(O)CN1CCC(c2ccccc2)CC1 (centres unmarked) [Compound 4b]
increase in activity (vesamicol receptor [1]; 4b relative to 4a): 30 fold | inhibition of vesicular ACh transport / activity (in words) (vesicular ACh transport): substantially diminished activity
